Test results reported in WO2007026771A1, “点滴用注射剤” (Ono Pharmaceutical Co Ltd, priority 2005, dated 2007).
“Also recorded” adds a separate entry of the source.

Assays:
[1] = Solubility of compound A in water at various pH values (5℃, 24 h, HPLC); type: physicochemical
[2] = pH of supernatant of aqueous suspension of compound A; type: physicochemical
[3] = molecular target: poly(ADP-ribose) polymerase (PARP) [ポリ(ADP−リボース)ポリメラーゼ] (Homo sapiens, UniProt P09874); settings: cited from earlier work
Chain of poly(ADP-ribose) polymerase (PARP) [ポリ(ADP−リボース)ポリメラーゼ] (P09874 whole entry): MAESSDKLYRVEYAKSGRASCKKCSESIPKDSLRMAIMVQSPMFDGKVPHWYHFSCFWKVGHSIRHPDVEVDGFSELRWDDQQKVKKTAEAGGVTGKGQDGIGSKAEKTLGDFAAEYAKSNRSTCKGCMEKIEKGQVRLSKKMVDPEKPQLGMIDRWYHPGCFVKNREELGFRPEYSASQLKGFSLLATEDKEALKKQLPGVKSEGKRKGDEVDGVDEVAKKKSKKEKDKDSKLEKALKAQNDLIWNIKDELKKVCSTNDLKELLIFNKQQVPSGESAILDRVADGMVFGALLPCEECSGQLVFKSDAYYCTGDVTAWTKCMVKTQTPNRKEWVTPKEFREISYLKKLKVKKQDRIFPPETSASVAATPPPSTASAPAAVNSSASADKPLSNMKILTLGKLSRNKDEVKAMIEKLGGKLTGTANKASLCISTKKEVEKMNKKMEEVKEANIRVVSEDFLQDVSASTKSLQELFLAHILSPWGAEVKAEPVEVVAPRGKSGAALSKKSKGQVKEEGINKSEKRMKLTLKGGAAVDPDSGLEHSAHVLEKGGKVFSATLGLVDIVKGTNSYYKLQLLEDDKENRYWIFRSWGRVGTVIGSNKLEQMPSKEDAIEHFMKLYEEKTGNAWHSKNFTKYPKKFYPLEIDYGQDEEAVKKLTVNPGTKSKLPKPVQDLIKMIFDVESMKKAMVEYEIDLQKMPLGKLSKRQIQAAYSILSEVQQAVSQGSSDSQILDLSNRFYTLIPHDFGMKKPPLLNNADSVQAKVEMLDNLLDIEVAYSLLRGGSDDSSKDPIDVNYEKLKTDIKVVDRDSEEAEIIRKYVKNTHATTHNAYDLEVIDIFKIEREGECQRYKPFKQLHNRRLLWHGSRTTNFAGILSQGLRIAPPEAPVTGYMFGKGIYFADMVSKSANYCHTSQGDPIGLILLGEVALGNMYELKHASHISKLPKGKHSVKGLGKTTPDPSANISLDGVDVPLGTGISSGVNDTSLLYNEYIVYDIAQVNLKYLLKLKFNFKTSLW

With O=C(Cc1n[nH]c(=O)c2c1CCCC2)NCCCCN1CCOCC1 [化合物A, 4−(N−(4−(モルホリン−4−イル)ブチル)カルバモイルメチル)−5,6,7,8−テトラヒドロフタラジン−1(2H)−オン] the dissolution in water ([1]; near neutral (e.g. pH 6 or above)) was “速やかに水に溶解せず”, the solubility in water ([1]; pH 8 or above) was “低い” and the dissolution in water ([1]; pH about 5 or below) was “速やかに水に溶解する”. For the same compound, the solubility in water ([1]; pH about 7 or below (adjusted)) was “著しく上昇; also recorded: 著しく向上”, the solubility in water ([1]; water) was “極めて低く” and the “pH of supernatant of aqueous suspension” value [2] was about 9.4. For the same compound, the toxicity (Toxicity of compound A) was “非常に低い” and the PARP inhibitory activity [3] was “阻害活性を有する; also recorded: PARP阻害活性を有する”.
